The record followed here is patent publication US20120115724A1, “METHOD OF CONTROLLING UNDESIRED VEGETATION” (SYNGENTA CROP PROTECTION LLC, priority 2009, published 2012).

What all share (format): in vivo
The test system of one assay is IPOHE Ipomoea hederacea. Briefly: Post-emergence crop and weed test (Example 15). The following applies: 360 h, after 15 days, read-out: Percentage damage IPOHE. In short, it runs like this:
(§1)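 Glasshouse post-emergence trial; 0–100 damage rating taken 15 days after spraying 14-day-old plants, which were watered twice daily post-treatment.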

Assay [1] has as its system AMARE Amaranthus retroflexus. Description: Post-emergence crop and weed test (Example 15). To be noted: 360 h, after 15 days, read-out: Percentage damage AMARE. A digest of the protocol:
as §1

Assay [2] deals with KCHSC Kochia scoparia. Description: Post-emergence crop and weed test (Example 15). To be noted: Bassia scoparia, 360 h, after 15 days, read-out: Percentage damage KCHSC. In short, it runs like this: as §1
The test system of assay [3] is POLCO Polygonum convolvulus. Briefly: Post-emergence crop and weed test (Example 15). To be noted: Fallopia convolvulus, 360 h, after 15 days, read-out: Percentage damage POLCO. A digest of the protocol:
as §1

In a further assay the test system is GLXMA Soybean. Description: Post-emergence crop and weed test (Example 15). The following applies: Glycine max, 360 h, after 15 days, read-out: Percentage damage GLXMA. A digest of the protocol:
as §1

For another assay, the system named is GALAP Galium aparine. Briefly: Post-emergence crop and weed test (Example 15). To be noted: 360 h, after 15 days, read-out: Percentage damage GALAP. A digest of the protocol: as §1
The subject of assay [4] is EPHHL Euphorbia heterophylla. Briefly: Post-emergence crop and weed test (Example 15). The following applies: 360 h, after 15 days, read-out: Percentage damage EPHHL. In short, it runs like this:
as §1

The next assay has as its system SINAR Sinapis arvensis. Description: Post-emergence crop and weed test (Example 15). To be noted: Mutarda arvensis, 360 h, after 15 days, read-out: Percentage damage SINAR. A digest of the protocol:
as §1

Assay [5] has as its system ABUTH Abutilon theophrasti. Briefly: Post-emergence crop and weed test (Example 15). The following applies: 360 h, after 15 days, read-out: Percentage damage ABUTH. In short, it runs like this: as §1
The subject of the next assay is VERPE Veronica persica. Description: Post-emergence crop and weed test (Example 15). To be noted: 360 h, after 15 days, read-out: Percentage damage VERPE. In short, it runs like this:
as §1

In assay [6] the test system is XANST Xanthium strumarium. Description: Post-emergence crop and weed test (Example 15). To be noted: 360 h, after 15 days, read-out: Percentage damage XANST. A digest of the protocol:
as §1

In another assay the test system is SIDSP Sida spinosa. Briefly: Post-emergence crop and weed test (Example 15). The following applies: 360 h, after 15 days, read-out: Percentage damage SIDSP. In short, it runs like this: as §1
Assay [7] relates to Ipomea hederaceae (IPOHE). Briefly: Pre-emergence biological efficacy (Example 13). To be noted: Ipomoea hederacea, 312 h; pre-emergence, 1,000 g/ha, after 13 days; read-out: Percentage damage IPOHE. A digest of the protocol: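 Seeds sown in standard soil in pots, kept one day in a glasshouse (24/16 °C day/night, 14 h light, 65% humidity), then sprayed with aqueous solution from acetone/water (50:50) with 0.5% Tween 20 at 250 or 1000 g/ha. Damage scored after 13 days (0 = none, 100 = total).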

The next assay relates to CHEAL Chenopodium album. Briefly: Post-emergence crop and weed test (Example 15). To be noted: 360 h, after 15 days, read-out: Percentage damage CHEAL. A digest of the protocol:
as §1

The test system of assay [8] is KCHSC Kochia scoparia. Description: Pre-emergence crop and weed test (Example 16). To be noted: after 20 days.

For `C/C=C\c1c(N)nc(-c2ccc(Cl)c(OC)c2F)nc1C(=O)OC` [Compound 4, (Z)-4-Amino-2-(4-chloro-2-fluoro-3-methoxy-phenyl)-6-methoxy-carbonyl-5-(prop-1-enyl)-pyrimidine], the pest or weed control at 8 g/ha was determined as 70% with IPOHE Ipomoea hederacea (8 g/ha); 80% in assay [1] (8 g/ha); 30% in the assay with KCHSC Kochia scoparia [2] (8 g/ha); 70% in assay [3] (8 g/ha); 30% in the assay with GALAP Galium aparine (8 g/ha); 90% in assay [4] (8 g/ha). For the same compound, the pest or weed control at 8 g/ha with SINAR Sinapis arvensis (8 g/ha) amounted to 60%; in assay [5] (8 g/ha), 60%; in the assay with VERPE Veronica persica (8 g/ha), 80%; in assay [6] (8 g/ha), 90%; in the assay on SIDSP Sida spinosa (8 g/ha) it was 50%. The plant injury at 8 g/ha in the assay on GLXMA Soybean (8 g/ha) is 20%. Also, the pest or weed control at 1000 g/ha in [7] came out at 100%.

As to `C/C=C\c1c(N)nc(-c2ccc(Cl)c(N(C)C)c2F)nc1C(=O)OC` [Compound 5, (Z)-4-Amino-2-(4-chloro-3-dimethylamino-2-fluorophenyl)-6-methoxy-carbonyl-5-(prop-1-enyl)-pyrimidine], the pest or weed control at 30 g/ha stood at 0% with IPOHE Ipomoea hederacea (30 g/ha); 90% in [1] (30 g/ha); 70% with KCHSC Kochia scoparia [2] (30 g/ha); 90% in assay [3] (30 g/ha); 80% in the assay on CHEAL Chenopodium album (30 g/ha); 60% in [4] (30 g/ha). Moreover, the pest or weed control at 30 g/ha with SINAR Sinapis arvensis (30 g/ha) was found to be 80%; in assay [5] (30 g/ha), 40%; with VERPE Veronica persica (30 g/ha), 60%; in [6] (30 g/ha) it was 70%; in the assay with SIDSP Sida spinosa (30 g/ha), 0%. Moreover, the plant injury at 30 g/ha in the assay with GLXMA Soybean (30 g/ha) was 0%. Also, the pest or weed control at 1000 g/ha in [7] was found to be 20%. Moreover, the “Percentage damage KCHSC” value in the assay with KCHSC Kochia scoparia [8] (125 g/ha) turned out to be 30%.

As for `C/C=C/c1c(N)nc(-c2ccc(Cl)c(OC)c2F)nc1C(=O)OC` [Compound 3, (E)-4-Amino-2-(4-chloro-2-fluoro-3-methoxy-phenyl)-6-methoxy-carbonyl-5-(prop-1-enyl)-pyrimidine], the pest or weed control at 125 g/ha in the assay on IPOHE Ipomoea hederacea (125 g/ha) is 80%; in [1] (125 g/ha), 100%; in the assay with KCHSC Kochia scoparia [2] (125 g/ha), 80%; in [3] (125 g/ha), 90%; in the assay on CHEAL Chenopodium album (125 g/ha) it was 90%; in the assay on GALAP Galium aparine (125 g/ha), 70%. Further, the pest or weed control at 125 g/ha in assay [4] (125 g/ha) came to 90%; in the assay with SINAR Sinapis arvensis (125 g/ha), 70%; in assay [5] (125 g/ha), 80%; with VERPE Veronica persica (125 g/ha), 80%; in assay [6] (125 g/ha), 80%; in the assay with SIDSP Sida spinosa (125 g/ha) it was 80%. Moreover, in the assay on GLXMA Soybean (125 g/ha), the plant injury at 125 g/ha stood at 0%. Also, in assay [7], the pest or weed control at 1000 g/ha is 90%. For the same compound, the “Percentage damage KCHSC” value with KCHSC Kochia scoparia [8] (30 g/ha) stood at 100%.
